Where “and” joins values, the source holds several entries; their conditions need not be identical. Equal entries are not always repeated. Where two headings read alike, the source gives them in different places.
Assay: Pharmacokinetics of MRS4322 following intravenous administration to neonatal pigs
Assay type: in vivo
Method: Animals. Four-week old female neonatal pigs weighing approximately 7.5 Kg were used for this study, supplied by the Department of Bioengineering, University of Pennsylvania (Philadelphia, PA). Animals were equipped with brain microdialysis probes to obtain brain extracellular fluid samples for drug concentration determinations during the study. All studies were conducted under approved University of Pennsylvania IACUC protocols.
Drug Administration: MRS4322 was solubilized in DMSO and then diluted in saline to prepare dosing solution. A 10 mL volume of dosing solution was administered by intravenous bolus administration to each neonatal pig (n=3).
Tissue Sampling: Blood samples were obtained at 0.25, 0.5, 1, 2, 4 and 6 hours post-dose. Brain extracellular fluid samples were obtained from implanted microdialysis probes at 1, 4 and 6 hours post-dose. Whole blood (1 mL) was obtained at each timepoint and placed in vacutainer tubes containing heparin and immediately centrifuged for preparation of plasma; plasma was stored at −80° C. Brain extracellular and cerebrospinal fluid samples were stored at −80° C. At the time of euthanasia (6 hours post-dose), cerebrospinal fluid samples were obtained and frozen, while brain samples from the cortex and hippocampus were obtained by decapitation, rinsed in ice-cold phosphate-buffered saline and weighed. Brain samples were then immediately flash-frozen in liquid nitrogen and stored at −80° C.
The following table outlines the LC and MS/MS conditions employed:
The calibration ranges for all of the MRS4322 matrice's standard curves were 0.1-1000 ng/mL.
For bioanalysis of brain concentrations of MRS4322, brain samples were homogenized in ice-cold phosphate-buffered saline in a 4× dilution. Aliquots of the resulting diluted brain homogenate were treated with acetonitrile and analyzed by LC-MS/MS.

[1] = plasma, MRS4322 0.2 mg/kg IV, individual animals, 0.2 mg/kg

## CSc1nc(N)c2ncn([C@H]3[C@H](O)[C@H](O)[C@]4(CO)C[C@H]34)c2n1 [MRS4322]
Brain Cortex, MRS4322 0.2 mg/kg IV, 6 h, individual subjects, 0.2 mg/kg
  Brain Concentration by Subject: 3.80 ng/mL and 6.15 ng/mL
Brain Hippocampus, MRS4322 0.2 mg/kg IV, 6 h, individual subjects, 0.2 mg/kg
  Brain Concentration by Subject: 4.56 ng/mL and 5.39 ng/mL
CSF, MRS4322 0.2 mg/kg IV, 6 h, individual subjects, 0.2 mg/kg
  Cerebro-Spinal Fluid Concentration by Subject: 1.04 ng/mL and 1.75 ng/mL
MRS4322 0.2 mg/kg IV, 0 h, individual subjects
  Plasma Concentration by Subject: BLQ
MRS4322 0.2 mg/kg IV, 0 h, mean
  Plasma Concentration Mean: BLQ
MRS4322 0.2 mg/kg IV, 0.25 h, individual subjects, 0.2 mg/kg
  Plasma Concentration by Subject: 120 ng/mL and 163 ng/mL
MRS4322 0.2 mg/kg IV, 0.5 h, individual subjects, 0.2 mg/kg
  Plasma Concentration by Subject: 54.1 ng/mL and 98.7 ng/mL
MRS4322 0.2 mg/kg IV, 1 h, individual subjects, 0.2 mg/kg
  Plasma Concentration by Subject: 51.4 ng/mL and 63.0 ng/mL
MRS4322 0.2 mg/kg IV, 2 h, individual subjects, 0.2 mg/kg
  Plasma Concentration by Subject: 27.2 ng/mL and 18.7 ng/mL and 46.8 ng/mL
MRS4322 0.2 mg/kg IV, 4 h, individual subjects, 0.2 mg/kg
  Plasma Concentration by Subject: 21.9 ng/mL and 28.7 ng/mL
MRS4322 0.2 mg/kg IV, 6 h, individual subjects, 0.2 mg/kg
  Plasma Concentration by Subject: 15.3 ng/mL and 9.08 ng/mL and 20.8 ng/mL
Brain ECF (microdialysis), MRS4322 0.2 mg/kg IV, 1 h, individual subjects, 0.2 mg/kg
  Extracellular Fluid Concentration by Subject: 1.55 ng/mL and 0.641 ng/mL and 1.70 ng/mL
Brain ECF, MRS4322 0.2 mg/kg IV, 4 h, individual subjects, 0.2 mg/kg
  Extracellular Fluid Concentration by Subject: 0.693 ng/mL and 0.579 ng/mL and 1.36 ng/mL
Brain ECF, MRS4322 0.2 mg/kg IV, 6 h, individual subjects, 0.2 mg/kg
  Extracellular Fluid Concentration by Subject: 0.602 ng/mL and 0.459 ng/mL and 1.08 ng/mL
female, pig, 0.2 mg/kg, IV, 6 hours post-dose, based on mean concentrations in plasma and brain, read-out: brain/plasma ratio of total drug
  Kp at 6 h: ~0.3
female, pig, brain cortex, iv, 0.2 mg/kg, Brain Cortex, MRS4322 0.2 mg/kg IV, 6 h, individual subjects, read-out: Brain Concentration by Subject
  concentration at 6 h: 5.34 ng/mL
female, pig, brain cortex, iv, 0.2 mg/kg, Brain Cortex, MRS4322 0.2 mg/kg IV, 6 h, mean, read-out: Brain Concentration Mean
  concentration at 6 h: 5.1 ng/mL
female, pig, brain extracellular fluid, iv, 0.2 mg/kg, brain ECF, MRS4322 0.2 mg/kg IV, 1 h, mean, read-out: Extracellular Fluid Concentration Mean
  concentration at 1 h: 1.3 ng/mL
female, pig, brain extracellular fluid, iv, 0.2 mg/kg, brain ECF, MRS4322 0.2 mg/kg IV, 4 h, mean, read-out: Extracellular Fluid Concentration Mean
  concentration at 4 h: 0.941 ng/mL
female, pig, brain extracellular fluid, iv, 0.2 mg/kg, brain ECF, MRS4322 0.2 mg/kg IV, 6 h, mean, read-out: Extracellular Fluid Concentration Mean
  concentration at 6 h: 0.714 ng/mL
female, pig, brain hippocampus, iv, 0.2 mg/kg, Brain Hippocampus, MRS4322 0.2 mg/kg IV, 6 h, individual subjects, read-out: Brain Concentration by Subject
  concentration at 6 h: 6.47 ng/mL
female, pig, brain hippocampus, iv, 0.2 mg/kg, Brain Hippocampus, MRS4322 0.2 mg/kg IV, 6 h, mean, read-out: Brain Concentration Mean
  concentration at 6 h: 5.47 ng/mL
female, pig, cerebrospinal fluid, iv, 0.2 mg/kg, CSF, MRS4322 0.2 mg/kg IV, 6 h, individual subjects, read-out: Cerebro-Spinal Fluid Concentration by Subject
  concentration at 6 h: 1.37 ng/mL
female, pig, cerebrospinal fluid, iv, 0.2 mg/kg, CSF, MRS4322 0.2 mg/kg IV, 6 h, mean, read-out: Cerebro-Spinal Fluid Concentration Mean
  concentration at 6 h: 1.39 ng/mL
female, pig, plasma, MRS4322 0.2 mg/kg IV, mean, read-out: Tmax Mean
  Tmax: 0.25 h
female, pig, plasma, iv, 0.2 mg/kg, MRS4322 0.2 mg/kg IV, 0.25 h, individual subjects, read-out: Plasma Concentration by Subject
  concentration at 0.25 h: 133 ng/mL
female, pig, plasma, iv, 0.2 mg/kg, MRS4322 0.2 mg/kg IV, 0.25 h, mean, read-out: Plasma Concentration Mean
  concentration at 0.25 h: 139 ng/mL
female, pig, plasma, iv, 0.2 mg/kg, MRS4322 0.2 mg/kg IV, 0.5 h, individual subjects, read-out: Plasma Concentration by Subject
  concentration at 0.5 h: 85.3 ng/mL
female, pig, plasma, iv, 0.2 mg/kg, MRS4322 0.2 mg/kg IV, 0.5 h, mean, read-out: Plasma Concentration Mean
  concentration at 0.5 h: 79.4 ng/mL
female, pig, plasma, iv, 0.2 mg/kg, MRS4322 0.2 mg/kg IV, 1 h, individual subjects, read-out: Plasma Concentration by Subject
  concentration at 1 h: 58.9 ng/mL
female, pig, plasma, iv, 0.2 mg/kg, MRS4322 0.2 mg/kg IV, 1 h, mean, read-out: Plasma Concentration Mean
  concentration at 1 h: 57.8 ng/mL
female, pig, plasma, iv, 0.2 mg/kg, MRS4322 0.2 mg/kg IV, 2 h, mean
  concentration at 2 h: 30.9 ng/mL
female, pig, plasma, iv, 0.2 mg/kg, MRS4322 0.2 mg/kg IV, 4 h, individual subjects, read-out: Plasma Concentration by Subject
  concentration at 4 h: 23.3 ng/mL
female, pig, plasma, iv, 0.2 mg/kg, MRS4322 0.2 mg/kg IV, 4 h, mean, read-out: Plasma Concentration Mean
  concentration at 4 h: 24.6 ng/mL
female, pig, plasma, iv, 0.2 mg/kg, MRS4322 0.2 mg/kg IV, 6 h, mean, read-out: Plasma Concentration Mean
  concentration at 6 h: 15.1 ng/mL
female, pig, plasma, iv, 0.2 mg/kg, MRS4322 0.2 mg/kg IV, mean
  half-life: 3.42 h
female, pig, plasma, iv, 0.2 mg/kg, plasma, MRS4322 0.2 mg/kg IV, individual animals, read-out: AUCINF
  AUC(0-inf): 344 ng·h/mL
female, pig, plasma, iv, 0.2 mg/kg, plasma, MRS4322 0.2 mg/kg IV, individual animals, read-out: AUClast
  AUC(0-t): 238 ng·h/mL
female, pig, plasma, iv, 0.2 mg/kg, plasma, MRS4322 0.2 mg/kg IV, individual animals, read-out: C0
  C0: 207 ng/mL
female, pig, plasma, iv, 0.2 mg/kg, plasma, MRS4322 0.2 mg/kg IV, individual animals, read-out: Cl
  clearance: 9.68 mL/min/kg
female, pig, plasma, iv, 0.2 mg/kg, plasma, MRS4322 0.2 mg/kg IV, individual animals, read-out: Cmax
  Cmax: 133 ng/mL
female, pig, plasma, iv, 0.2 mg/kg, plasma, MRS4322 0.2 mg/kg IV, individual animals, read-out: Vz
  Vd: 4.04 L/kg
female, pig, plasma, iv, 0.2 mg/kg, plasma, MRS4322 0.2 mg/kg IV, mean, read-out: AUCINF Mean
  AUC(0-inf): 326 ng·h/mL
female, pig, plasma, iv, 0.2 mg/kg, plasma, MRS4322 0.2 mg/kg IV, mean, read-out: AUClast Mean
  AUC(0-t): 249 ng·h/mL
female, pig, plasma, iv, 0.2 mg/kg, plasma, MRS4322 0.2 mg/kg IV, mean, read-out: C0 Mean
  C0: 248 ng/mL
female, pig, plasma, iv, 0.2 mg/kg, plasma, MRS4322 0.2 mg/kg IV, mean, read-out: Cl Mean
  clearance: 10.8 mL/min/kg
female, pig, plasma, iv, 0.2 mg/kg, plasma, MRS4322 0.2 mg/kg IV, mean, read-out: Cmax Mean
  Cmax: 139 ng/mL
female, pig, plasma, iv, 0.2 mg/kg, plasma, MRS4322 0.2 mg/kg IV, mean, read-out: Vz Mean
  Vd: 3.05 L/kg
plasma, MRS4322 0.2 mg/kg IV, individual animals
  Tmax: 0.25 h
[1]
  AUCINF: 233 ng·h/mL and 401 ng·h/mL
  AUClast: 203 ng·h/mL and 307 ng·h/mL
  C0: 286 ng/mL and 289 ng/mL
  Cl: 14.3 mL/min/kg and 8.31 mL/min/kg
  Cmax: 120 ng/mL and 163 ng/mL
  Half Life: 4.82 h and 2.31 h and 3.13 h
  Vz: 2.86 L/kg and 2.25 L/kg

Source: US12239654B2, “Compounds and methods for treating neurological and cardiovascular conditions” (Astrocyte Pharmaceuticals, Inc., priority 2016, dated 2025)
